Test system: amyloid plaques and fibrils in human brain slices
Assay: Human brain slice competition assay using autoradiography
Format: binding
Details: radiolabeled tracer approx. 20 uCi, 90 min rt, lower = more displacement; for _max low dose (percent dose remaining relative to control with no blocker): blocker 0.25 uM; for _max high dose (percent dose remaining relative to control with no blocker): blocker 2.5 uM
Method: Human Brain Slice Competition Assay Using Autoradiography
Briefly, 5 micron thick human brain slices from regions of the brain bearing high amyloid plaque and fibril burden were incubated with approximately 20 uCi of a radiolabeled tracer in 2.5%:2.5%:95% DMSO:EtOH:PBS in the presence of blocker (2.5 and 0.25 uM total concentration) or absence of blocker (control). The slices were incubated at rt for 90 min. The slices were then quickly washed in PBS, followed by 70% EtOH:PBS for 2 min, then 30% EtOH:PBS for 2 min and then quickly washed with PBS. The slices were dried for 30 min and then exposed on autoradiographic film for 20 min. The brain slices were then removed from the slide and the radioactivity counted in a gamma counter. The percent dose remaining, relative to a control with no blocker, at 0.25 uM is represented in the “_max low dose” column. The percent dose remaining, relative to a control with no blocker, at 2.5 uM is represented in the “_max high dose” column.

SMILES | _max low dose (percent dose remaining relative to control with no blocker) [%] | _max high dose (percent dose remaining relative to control with no blocker) [%]
CNc1ccc(-c2nc3ccccc3s2)cc1 [BTA1, reference compound] | 33.66 | 17.80
FCCOc1ccc2c(c1)[nH]c1ccccc12 [CB1] | 74.86 | 30.34
FCCOCCOCCOc1ccc2c(c1)[nH]c1ccccc12 [CB3] | 69.78 | 29.53
CNc1ccc2c(c1)[nH]c1cc(OCCOCCOCCF)ccc12 [CB4] | 54.17 | 16.96
Cn1c2ccccc2c2ccc(OCCOCCOCCF)cc21 [CB6] | 111.02 | 113.69
CN(C)c1ccc2c(c1)[nH]c1cc(OCCOCCOCCF)ccc12 [CB7] | 42.64 | 15.14
CNc1ccc2[nH]c3ccc(OCCOCCOCCF)cc3c2c1 [CB8] | 95.89 | 108.49
O=CNc1ccc2c(c1)[nH]c1cc(OCCOCCOCCF)ccc12 [CB9] | 93.92 | 80.06
O=CNc1ccc2c(c1)[nH]c1cc(OCCOCCOCCF)ccc12 [CB10] | 69.29 | 21.60
O=CNc1ccc2c(c1)[nH]c1cc(OCCF)ccc12 [CB12] | 59.97 | 12.29
COc1ccc2[nH]c3ccc(NCCF)cc3c2c1 [CB13] | 108.14 | 110.57
CN(CCCCF)c1ccc2c(c1)[nH]c1cc(O)ccc12 [CB14] | 114.19 | 49.02
CC(=O)n1c2ccccc2c2ccc(OCCOCCOCCF)cc21 [CB17] | 91.06 | 62.03
O=C(c1ccccc1)n1c2ccccc2c2ccc(OCCOCCOCCF)cc21 [CB21] | 104.81 | 94.00
O=c1cc(-c2ccccc2)c2ccc(O)c(O)c2o1 [Compound 73] | 68.43 | 34.37
COc1ccc2cc(-c3ccn[nH]3)ccc2c1 [Compound W1] | 70.48 | 35.38
CN(C)c1ccc(/C=C2/C(=O)Nc3ccccc32)cc1 [Compound W12] | 105.11 | 45.98
Oc1cccc2[nH]c3ccccc3c12 [Compound W19] | 100.46 | 89.32
Nc1ccc2c(c1)oc1ccccc12 [Compound W20] | 95.11 | 43.52
O=C(/C=C/C=C/c1ccccc1)c1cccs1 [Compound W24] | 55.16 | 23.51
COc1cc2c(cc1N)oc1ccccc12 [Compound W33] | 82.52 | 36.72
CC(=O)Nc1ccc2sc3ccccc3c2c1 [Compound W34] | 84.84 | 73.74
Nc1ccc2c(c1)[nH]c1cc(OCc3ccccc3)ccc12 [Compound W42] | 49.95 | 17.60
Nc1ccc2[nH]c3ccc(OCc4ccccc4)cc3c2c1 [Compound W60] | 105.87 | 115.14
COc1ccc2c(c1)[nH]c1c(C)nccc12 [Compound W65] | 105.49 | 94.16
c1ccc2c(c1)[nH]c1cnccc12 [Compound W67] | 101.83 | 94.93

SMILES | _max low dose (percent dose remaining relative to control with no blocker) [%] | _max high dose (percent dose remaining relative to control with no blocker) [%]
c1ccc2c(c1)[nH]c1cc(OCCOCCOCCOc3ccc4c(c3)[nH]c3ccccc34)ccc12 [Compound W70] | 88.20 | 89.53
CN(C)c1ccc(/C=C2\C(=O)Nc3ccc(F)cc32)cc1 [Compound W71] | 104.61 | 88.00
Oc1cccc(-c2cc3ccccn3c2)c1 [Compound W73] | 66.38 | 35.16
N#Cc1ccc(/C=C2\C(=O)Nc3ccc(F)cc32)cc1 [Compound W79] | 92.77 | 96.90
c1ccc2c(c1)Cn1c-2nc2ccccc21 [Compound W81] | 96.06 | 81.94
FCCOc1cccc(-c2cc3ccccn3c2)c1 [Compound W84] | 97.22 | 40.32
O=c1sc2ccccc2n1/C=C/c1ccccc1 [Compound W88] | 29.58 | 7.65
CC(=O)c1ccc2[nH]c(=O)sc2c1 [Compound W92] | 112.87 | 88.58
FCCOCCOCCOc1ccc2c(c1)[nH]c1sc3ccccc3c12 [Compound W94] | 103.76 | 40.74
N#CC1c2ccc(O)cc2N2C=CC=CC12 (stereo not drawn) [Compound W99] | 87.14 | 76.06
NC(=O)c1ccc2cc(-c3cccc([N+](=O)[O-])c3)cn2c1 [Compound W100] | 97.53 | 75.02
CN(CCOCCOCCF)c1ccc2c(c1)[nH]c1cc(O)ccc12 [Compound W101] | 81.33 | 73.62
CN(C)c1ccc2c3ccc(OCCF)cc3n(CCF)c2c1 [Compound W102] | 91.92 | 92.00
Oc1ccc(-c2cc3ccccn3c2)cc1 [Compound W103] | 35.38 | 3.50
CNc1ccc2c(c1)[nH]c1cc(OCc3ccccc3)ccc12 [Compound W104] | 48.35 | 34.77
CNc1ccc2c(c1)[nH]c1cc(OCCF)ccc12 [Compound W106] | 46.04 | 21.03
COc1ccc2c(c1)sc1nc(-c3ccc(F)cc3)cn12 [Compound W119] |  | 7.85
CNc1ccc(-c2nc3ccc(OC)cc3s2)cn1 [Compound W184] |  | 8.05
CNc1ccc(-c2ccc3scnc3c2)cc1 [Compound W189, 4-(benzo[d]thiazol-5-yl)-N-methylaniline] |  | 9.53
FCCOCCOCCOc1ccc2c(c1)[nH]c1c3ccccc3sc21 [DHK4-57] | 81.06 | 30.70
FCCOCCOCCOc1ccc2c(c1)[nH]c1ncccc12 [DHK4-58] | 88.82 | 85.78
CNc1ccc2c(c1)[nH]c1cc(O)ccc12 [GC3125] | 47.08 | 18.59
FCCCCOc1cccc(-c2cc3ccccn3c2)c1 [IN3] | 98.13 | 67.27
CN(CCF)c1ccc(/C=C2/C(=O)Nc3ccccc32)cc1 [OX-2, (E)-3-(4-((2-fluoroethyl)(methyl)amino)benzylidene)indolin-2-one] | 68.22 | 82.78
FCCNc1nc(-c2ccc3ccccc3c2)cs1 [TZ001, N-(2-fluoroethyl)-4-(naphthalen-2-yl)thiazol-2-amine] | 98.06 | 52.00

— US8420052B2, “Imaging agents useful for identifying AD pathology” (Siemens Medical Solutions USA, Inc., priority 2008, dated 2013)
